Measurements taken from ChEMBL document CHEMBL2440076, “New triarylpyrazoles as broad-spectrum anticancer agents: design, synthesis, and biological evaluation” (Eur J Med Chem, 2013).

What was measured:
Type in all cases: functional
[1] = tested on: HCT-116; assay: Growth inhibition of human HCT116 cells assessed as cell growth at 5X10'-9 M after 48 hrs by sulforhodamine B assay; conditions: HCT-116, 48 h, read-out: Activity
[2] = tested on: U-251; assay: Growth inhibition of human U251 cells assessed as cell growth at 5X10'-5 M after 48 hrs by sulforhodamine B assay; conditions: U-251, 48 h, read-out: Activity
[3] = tested on: SF-268; assay: Growth inhibition of human SF268 cells assessed as cell growth at 5X10'-5 M after 48 hrs by sulforhodamine B assay; conditions: SF-268, 48 h, read-out: Activity
[4] = tested on: HCT-116; assay: Growth inhibition of human HCT116 cells assessed as cell growth at 5X10'-5 M after 48 hrs by sulforhodamine B assay; conditions: HCT-116, 48 h, read-out: Activity
[5] = tested on: HL-60(TB); assay: Growth inhibition of human HL-60(TB) cells assessed as cell growth at 5X10'-5 M after 48 hrs by sulforhodamine B assay; conditions: HL-60, 48 h, read-out: Activity
[6] = tested on: OVCAR-8; assay: Growth inhibition of human OVCAR8 cells assessed as cell growth at 5X10'-6 M after 48 hrs by sulforhodamine B assay; conditions: OVCAR-8, 48 h, read-out: Activity
[7] = tested on: UACC-62; assay: Growth inhibition of human UACC62 cells assessed as cell growth at 5X10'-6 M after 48 hrs by sulforhodamine B assay; conditions: UACC-62, 48 h, read-out: Activity
[8] = tested on: DU-145; assay: Growth inhibition of human DU145 cells assessed as cell growth at 10 uM after 48 hrs by sulforhodamine B assay; conditions: DU-145, 48 h, read-out: Activity
[9] = tested on: SN12C; assay: Growth inhibition of human SN12C cells assessed as cell growth at 10 uM after 48 hrs by sulforhodamine B assay; conditions: read-out: Activity
[10] = tested on: HOP-62; assay: Growth inhibition of human HOP62 cells after 48 hrs by sulforhodamine B assay; conditions: HOP-62, 48 h; for CC50: read-out: LC50 (the source's name)
[11] = tested on: K562; assay: Growth inhibition of human K562 cells after 48 hrs by sulforhodamine B assay; conditions: K562, 48 h; for CC50: read-out: LC50 (the source's name)
[12] = tested on: RXF 393; assay: Growth inhibition of human RXF393 cells assessed as cell growth at 10 uM after 48 hrs by sulforhodamine B assay; conditions: RXF 393, 48 h, read-out: Activity
[13] = tested on: A498; assay: Growth inhibition of human A498 cells assessed as cell growth at 10 uM after 48 hrs by sulforhodamine B assay; conditions: A498, 48 h, read-out: Activity
[14] = tested on: OVCAR-4; assay: Growth inhibition of human OVCAR4 cells assessed as cell growth at 10 uM after 48 hrs by sulforhodamine B assay; conditions: OVCAR-4, 48 h, read-out: Activity
[15] = tested on: SK-MEL-2; assay: Growth inhibition of human SK-MEL-2 cells assessed as cell growth at 10 uM after 48 hrs by sulforhodamine B assay; conditions: SK-MEL-2, 48 h, read-out: Activity
[16] = tested on: Malme-3M; assay: Growth inhibition of human MALME-3M cells assessed as cell growth at 10 uM after 48 hrs by sulforhodamine B assay; conditions: read-out: Activity
[17] = tested on: KM12; assay: Growth inhibition of human KM12 cells assessed as cell growth at 10 uM after 48 hrs by sulforhodamine B assay; conditions: KM12, 48 h, read-out: Activity
[18] = tested on: SW-620; assay: Growth inhibition of human SW620 cells assessed as cell growth at 5X10'-6 M after 48 hrs by sulforhodamine B assay; conditions: SW-620, 48 h, read-out: Activity
[19] = Growth inhibition of human Hs 578T cells assessed as cell growth at 5X10'-7 M after 48 hrs by sulforhodamine B assay; conditions: read-out: Activity
[20] = tested on: MCF7; assay: Growth inhibition of human MCF7 cells assessed as cell growth at 5X10'-7 M after 48 hrs by sulforhodamine B assay; conditions: MCF7, 48 h, read-out: Activity
[21] = tested on: 786-0; assay: Growth inhibition of human 786-0 cells assessed as cell growth at 5X10'-7 M after 48 hrs by sulforhodamine B assay; conditions: 786-0, 48 h, read-out: Activity
[22] = tested on: SK-OV-3; assay: Growth inhibition of human SKOV3 cells assessed as cell growth at 5X10'-7 M after 48 hrs by sulforhodamine B assay; conditions: SK-OV-3, 48 h, read-out: Activity
[23] = tested on: OVCAR-5; assay: Growth inhibition of human OVCAR5 cells assessed as cell growth at 5X10'-7 M after 48 hrs by sulforhodamine B assay; conditions: OVCAR-5, 48 h, read-out: Activity
[24] = tested on: U-251; assay: Growth inhibition of human U251 cells assessed as cell growth at 5X10'-7 M after 48 hrs by sulforhodamine B assay; conditions: U-251, 48 h, read-out: Activity
[25] = tested on: SNB-75; assay: Growth inhibition of human SNB75 cells assessed as cell growth at 5X10'-7 M after 48 hrs by sulforhodamine B assay; conditions: SNB-75, 48 h, read-out: Activity
[26] = tested on: SK-OV-3; assay: Growth inhibition of human SKOV3 cells after 48 hrs by sulforhodamine B assay; conditions: SK-OV-3, 48 h; for CC50: read-out: LC50 (the source's name)
[27] = tested on: UACC-62; assay: Growth inhibition of human UACC62 cells after 48 hrs by sulforhodamine B assay; conditions: UACC-62, 48 h
[28] = tested on: SK-MEL-2; assay: Growth inhibition of human SK-MEL-2 cells after 48 hrs by sulforhodamine B assay; conditions: SK-MEL-2, 48 h
[29] = tested on: LOX IMVI; assay: Growth inhibition of human LOXIMVI cells after 48 hrs by sulforhodamine B assay
[30] = tested on: SK-MEL-2; assay: Growth inhibition of human SK-MEL-2 cells assessed as cell growth at 5X10'-8 M after 48 hrs by sulforhodamine B assay; conditions: SK-MEL-2, 48 h, read-out: Activity
[31] = tested on: SN12C; assay: Growth inhibition of human SN12C cells assessed as cell growth at 5X10'-5 M after 48 hrs by sulforhodamine B assay; conditions: read-out: Activity
[32] = tested on: TK-10; assay: Growth inhibition of human TK10 cells assessed as cell growth at 5X10'-5 M after 48 hrs by sulforhodamine B assay; conditions: TK-10, 48 h, read-out: Activity
[33] = tested on: SR; assay: Growth inhibition of human SR cells assessed as cell growth at 5X10'-8 M after 48 hrs by sulforhodamine B assay; conditions: read-out: Activity
[34] = tested on: MOLT-4; assay: Growth inhibition of human MOLT4 cells assessed as cell growth at 5X10'-8 M after 48 hrs by sulforhodamine B assay; conditions: MOLT-4, 48 h, read-out: Activity
[35] = tested on: MCF7; assay: Growth inhibition of human MCF7 cells assessed as cell growth at 5X10'-9 M after 48 hrs by sulforhodamine B assay; conditions: MCF7, 48 h, read-out: Activity
[36] = tested on: TK-10; assay: Growth inhibition of human TK10 cells assessed as cell growth at 5X10'-9 M after 48 hrs by sulforhodamine B assay; conditions: TK-10, 48 h, read-out: Activity
[37] = tested on: UACC-257; assay: Growth inhibition of human UACC257 cells assessed as cell growth at 5X10'-9 M after 48 hrs by sulforhodamine B assay; conditions: UACC-257, 48 h, read-out: Activity

SMILES: COc1cc(-c2nn(-c3cccc(NC(=O)Nc4cccc(C(F)(F)F)c4)c3)cc2-c2ccncc2)ccc1Cl
- growth at 0.005 µM [1]: 101%
- growth at 50 µM [2]: -84%
- growth at 50 µM [3]: -34%
- growth at 50 µM [4]: -16%
- growth at 50 µM [5]: 5%
- growth at 5 µM [6]: -24%
- growth at 5 µM [7]: -73%
- growth at 10 µM [8]: 9.75%
- growth at 10 µM [9]: 7.22%
- GI50 [10]: 1.34 µM
- TGI [10]: 4.07 µM
- CC50 [10]: > 50 µM
- GI50 [11]: 0.584 µM
- TGI [11]: > 50 µM
- CC50 [11]: > 50 µM
- growth at 10 µM [12]: -69.8%
- growth at 10 µM [13]: -5.17%
- growth at 10 µM [14]: 11.1%
- growth at 10 µM [15]: -71.2%
- growth at 10 µM [16]: -32.1%
- growth at 10 µM [17]: -27.8%
- growth at 5 µM [18]: 5%
- growth at 0.5 µM [19]: 80%
- growth at 0.5 µM [20]: 60%
- growth at 0.5 µM [21]: 91%
- growth at 0.5 µM [22]: 102%
- growth at 0.5 µM [23]: 80%
- growth at 0.5 µM [24]: 67%
- growth at 0.5 µM [25]: 81%
- GI50 [26]: 2.02 µM
- TGI [26]: > 50 µM
- CC50 [26]: > 50 µM
- GI50 [27]: 0.725 µM
- LC50 (50% lethal concentration) [27]: 3.48 µM
- TGI [27]: 1.59 µM
- GI50 [28]: 0.97 µM
- LC50 (50% lethal concentration) [28]: 3.96 µM
- TGI [28]: 1.96 µM
- GI50 [29]: 0.789 µM
- LC50 [29]: 3.46 µM
- TGI [29]: 1.65 µM
- growth at 0.05 µM [30]: 98%
- growth at 50 µM [31]: -7%
- growth at 50 µM [32]: -7%
- growth at 0.05 µM [33]: 93%
- growth at 0.05 µM [34]: 92%
- growth at 0.005 µM [35]: 94%
- growth at 0.005 µM [36]: 94%
- growth at 0.005 µM [37]: 96%

SMILES: O=C(Nc1cccc(-n2cc(-c3ccncc3)c(-c3ccc(Cl)c(O)c3)n2)c1)c1ccc(N2CCOCC2)c(C(F)(F)F)c1
- growth at 0.005 µM [1]: 99%
- growth at 50 µM [2]: -7%
- growth at 50 µM [3]: 30%
- growth at 50 µM [4]: 10%
- growth at 50 µM [5]: 4%
- growth at 5 µM [6]: 41%
- growth at 5 µM [7]: 39%
- growth at 10 µM [8]: 52.7%
- growth at 10 µM [9]: 73.9%
- GI50 [10]: 9.38 µM
- TGI [10]: > 50 µM
- CC50 [10]: > 50 µM
- GI50 [11]: 1.88 µM
- TGI [11]: > 50 µM
- CC50 [11]: > 50 µM
- growth at 10 µM [12]: -26%
- growth at 10 µM [13]: 101%
- growth at 10 µM [14]: 108%
- growth at 10 µM [15]: 17.6%
- growth at 10 µM [16]: 10.7%
- growth at 10 µM [17]: 30.6%
- growth at 5 µM [18]: 2%
- growth at 0.5 µM [19]: 84%
- growth at 0.5 µM [20]: 78%
- growth at 0.5 µM [21]: 95%
- growth at 0.5 µM [22]: 106%
- growth at 0.5 µM [23]: 98%
- growth at 0.5 µM [24]: 94%
- growth at 0.5 µM [25]: 72%
- GI50 [26]: 20 µM
- TGI [26]: > 50 µM
- CC50 [26]: > 50 µM
- GI50 [27]: 3.26 µM
- LC50 (50% lethal concentration) [27]: > 50 µM
- TGI [27]: 18.4 µM
- GI50 [28]: 2.89 µM
- LC50 (50% lethal concentration) [28]: > 50 µM
- TGI [28]: 15.3 µM
- GI50 [29]: 1.64 µM
- LC50 [29]: 44.8 µM
- TGI [29]: 7.3 µM
- growth at 0.05 µM [30]: 98%
- growth at 50 µM [31]: 39%
- growth at 50 µM [32]: 24%
- growth at 0.05 µM [33]: 99%
- growth at 0.05 µM [34]: 94%
- growth at 0.005 µM [35]: 89%
- growth at 0.005 µM [36]: 94%
- growth at 0.005 µM [37]: 100%
